From patent US20100041089A1, “IMPROVED METHOD FOR DETECTING CHEMICAL […]” (priority 2006, published 2010)

System: yeast genes (expressed mRNA)
Test: DNA chip measurement of expressed mRNA of yeast genes after culture with a toxic chemical substance
Type: cell-based, Saccharomyces cerevisiae S288C
Protocol: Yeast (Saccharomyces cerevisiae S288C (a SUC2mal mel gap2 CUP1)) were cultured at 25° C. on YPD medium (yeast extract 1%, polypeptone 2%, glucose 2%). One of toxic chemical substances was added to the cell at logarithmic growth phase, and the cell was further cultured for two hours. Cell was cultured without any chemical substance in the same condition, and was used as a control. Concentrations of the chemical substances were defined to inhibit the growth of the yeast but not lead to death.
After the completion of cultivation, the culture was centrifuged to collect the cells. To the cells, sodium acetate buffer (50 mM sodium acetate, 10 mM EDTA, 1% SDS) was added, and the mixture was shaken at 65° C. for five minutes, followed by returning to room temperature, and obtaining the supernatant, which procedure was repeated two times. To the supernatant, ½ amount of a solution of phenol/chloroform (1:1) was added, and the mixture was centrifuged to give a supernatant, an equal amount of chloroform was added, and the mixture was centrifuged to give a supernatant. To the supernatant, an equal amount of isopropanol containing 0.3 M sodium acetate was added, and the mixture was allowed to stand at room temperature for 30 minutes, after which the mixture was centrifuged to give sediment of the whole RNAs. Seventy % ethanol was added to the sediment, and the mixture was again centrifuged to give sediment, which was then dried and dissolved in water. mRNA was isolated from the whole RNAs as followings. In view of the fact that a poly A chain is attached to the 3′ terminus of mRNA, a polynucleotide having a poly T structure which was immobilized on the surface of latex beads was used to trap the mRNA, and then the mRNA was washed and eluted with spine column (Oligotex-dT30<Super>mRNA Purification Kit, Takara). Reverse transcription of the mRNA was conducted with a reverse transcriptase (Super Script II Reverse Transcriptase; catalogue No. 18064-014, GibcoBRL) using fluorescence-labeled nucleotides to give cDNAs that were introduced with Cy3-dUTP or Cy5-dUTP during the reverse transcription.
The labeled cDNAs were dissolved in TE buffer (10 mM Tris-HCl/1 mM EDTA, pH 8.0), and the solution was dropped on the DNA chip containing the whole genes of yeast (DNA Chip Research Inc. Japan) so that the cDNAs were hybridized on the DNA chip at 65° C. for over 12 hours. The fluoresces intensity of the DNA chip was read with a scanner, and the ratio relative to the fluorescence intensity resulting from the absence of chemical substance was estimated as the following, which is shown in Tables 1 to 9.
In the Tables, “Intensity” indicated in the rightmost column is a value of the level of expressed mRNA of each gene in control cells as divided by the average level of the expressions of the whole genes. A gene of which mRNA level is lower in control, and is higher in cases of addition of chemical substance, is especially useful in the detection of toxic substances.
Here, when a ratio of an amount of mRNA expressed in the presence of the chemical substance to an amount of mRNA expressed in the absence of the chemical substance is two or more, then it is considered significant.

## Oc1cc(Cl)c(Cl)cc1Cl [(6), 2,4,5-Trichlorophenol]
Yeast gene YAL053W, cultured two hours with substance
  The level of expressed mRNA in the presence of chemical substance/The level of expressed mRNA in the absence of chemical substance: 1.1
Yeast gene YAR028W, cultured two hours with substance
  The level of expressed mRNA in the presence of chemical substance/The level of expressed mRNA in the absence of chemical substance: 3.3
Yeast gene YBL043W
  The level of expressed mRNA in the presence of chemical substance/The level of expressed mRNA in the absence of chemical substance: 26.9
Yeast gene YBL048W, cultured two hours with substance
  The level of expressed mRNA in the presence of chemical substance/The level of expressed mRNA in the absence of chemical substance: 2.0
Yeast gene YBL107C, cultured two hours with substance
  The level of expressed mRNA in the presence of chemical substance/The level of expressed mRNA in the absence of chemical substance: 1.1
Yeast gene YBR026C
  The level of expressed mRNA in the presence of chemical substance/The level of expressed mRNA in the absence of chemical substance: 0.1
Yeast gene YBR072W (stress protein genes)
  The level of expressed mRNA in the presence of chemical substance/The level of expressed mRNA in the absence of chemical substance: 32.2
Yeast gene YBR145W
  The level of expressed mRNA in the presence of chemical substance/The level of expressed mRNA in the absence of chemical substance: 11.5
Yeast gene YBR145W (detoxification protein gene)
  The level of expressed mRNA in the presence of chemical substance/The level of expressed mRNA in the absence of chemical substance: 11.5
Yeast gene YBR145W, cultured for two hours with substance
  The level of expressed mRNA in the presence of chemical substance/The level of expressed mRNA in the absence of chemical substance: 11.5
Yeast gene YBR169C (stress protein genes)
  The level of expressed mRNA in the presence of chemical substance/The level of expressed mRNA in the absence of chemical substance: 4.9
Yeast gene YDL072C, cultured two hours with substance
  The level of expressed mRNA in the presence of chemical substance/The level of expressed mRNA in the absence of chemical substance: 1.5
Yeast gene YDL204W, cultured two hours with substance
  The level of expressed mRNA in the presence of chemical substance/The level of expressed mRNA in the absence of chemical substance: 5.6
Yeast gene YDL206W (transport facilitation protein genes)
  The level of expressed mRNA in the presence of chemical substance/The level of expressed mRNA in the absence of chemical substance: 5.7
Yeast gene YDL222C, cultured two hours with substance
  The level of expressed mRNA in the presence of chemical substance/The level of expressed mRNA in the absence of chemical substance: 1.4
Yeast gene YDR031W, cultured two hours with substance
  The level of expressed mRNA in the presence of chemical substance/The level of expressed mRNA in the absence of chemical substance: 3.6
Yeast gene YDR033W (stress protein genes)
  The level of expressed mRNA in the presence of chemical substance/The level of expressed mRNA in the absence of chemical substance: 6.7
Yeast gene YDR315C
  The level of expressed mRNA in the presence of chemical substance/The level of expressed mRNA in the absence of chemical substance: 9.4
Yeast gene YDR330W, cultured two hours with substance
  The level of expressed mRNA in the presence of chemical substance/The level of expressed mRNA in the absence of chemical substance: 2.3
Yeast gene YDR391C, cultured two hours with substance
  The level of expressed mRNA in the presence of chemical substance/The level of expressed mRNA in the absence of chemical substance: 2.8
Yeast gene YDR406W (transport facilitation protein gene)
  The level of expressed mRNA in the presence of chemical substance/The level of expressed mRNA in the absence of chemical substance: 5.9
Yeast gene YDR411C, cultured two hours with substance
  The level of expressed mRNA in the presence of chemical substance/The level of expressed mRNA in the absence of chemical substance: 0.8
Yeast gene YDR511W, cultured two hours with substance
  The level of expressed mRNA in the presence of chemical substance/The level of expressed mRNA in the absence of chemical substance: 2.0
Yeast gene YDR545W, cultured two hours with substance
  The level of expressed mRNA in the presence of chemical substance/The level of expressed mRNA in the absence of chemical substance: 1.0
Yeast gene YEL001C, cultured two hours with substance
  The level of expressed mRNA in the presence of chemical substance/The level of expressed mRNA in the absence of chemical substance: 1.3
Yeast gene YER004W, cultured two hours with substance
  The level of expressed mRNA in the presence of chemical substance/The level of expressed mRNA in the absence of chemical substance: 1.2
Yeast gene YER035W, cultured two hours with substance
  The level of expressed mRNA in the presence of chemical substance/The level of expressed mRNA in the absence of chemical substance: 0.9
Yeast gene YER079W, cultured two hours with substance
  The level of expressed mRNA in the presence of chemical substance/The level of expressed mRNA in the absence of chemical substance: 1.5
Yeast gene YER106W, cultured two hours with substance
  The level of expressed mRNA in the presence of chemical substance/The level of expressed mRNA in the absence of chemical substance: 1.1
Yeast gene YER158C, cultured two hours with substance
  The level of expressed mRNA in the presence of chemical substance/The level of expressed mRNA in the absence of chemical substance: 0.7
Yeast gene YER163C, cultured two hours with substance
  The level of expressed mRNA in the presence of chemical substance/The level of expressed mRNA in the absence of chemical substance: 2.0
Yeast gene YER175C, cultured two hours with substance
  The level of expressed mRNA in the presence of chemical substance/The level of expressed mRNA in the absence of chemical substance: 0.8
Yeast gene YFL006W, cultured two hours with substance
  The level of expressed mRNA in the presence of chemical substance/The level of expressed mRNA in the absence of chemical substance: 1.2
Yeast gene YFL010C, cultured two hours with substance
  The level of expressed mRNA in the presence of chemical substance/The level of expressed mRNA in the absence of chemical substance: 1.9
Yeast gene YFL014W, DNA repair protein genes, cultured two hours with substance
  The level of expressed mRNA in the presence of chemical substance/The level of expressed mRNA in the absence of chemical substance: 9.3
Yeast gene YFL024C, cultured two hours with substance
  The level of expressed mRNA in the presence of chemical substance/The level of expressed mRNA in the absence of chemical substance: 2.0
